Assay results published in patent US11406633B2, “Dosing schedule of a Wnt inhibitor and an anti-PD-1 antibody molecule in combination” (Novartis AG, priority 2017, dated 2022).
Read-outs that look alike come from different tables or passages of the source.

How the values were obtained:
[1] = determined within the CPDR001X2101 clinical study; cited from earlier work
Wnt pathway = assay: pLRP6 and AXIN2 qPCR levels in biopsies of skin and tumors after treatment; type: in vivo, human; details: post-treatment skin sample biopsies
Description: (§1) Recently, the secreted glycoproteins R-spondins 1-4 (RSPO1-4) have emerged as important activators of canonical Wnt signaling. RSPOs bind to leucine-rich repeat-containing G-protein-coupled receptors (LGR4-6) and the transmembrane E3 ubiquitin ligases RING finger 43/zinc and RING finger 3 (RNF43/ZNRF3), forming a ternary complex (Chen et al. Genes Dev; 2013, 27, 1345). RNF43/ZNRF3 antagonize Wnt signaling by promoting the turnover of Fz and LRP6 (Hao et al. Nature 2012, 485 (7397), 195-200; Koo et al. Nature, 2012, 488 (7413), 665). Binding of RSPO induces the endocytosis of RNF43/ZNRF3, thereby increasing levels of membrane-bound Fz and LRP6 and enhancing Wnt ligand-mediated signaling. In order to activate signaling within target cells, Wnt proteins must be properly secreted and transported across the extracellular space. Porcupine is a membrane-bound-O-acyltransferase (MBOAT) that adds palmitoyl groups to Wnt proteins (Takada et al. Dev. Cell 2006, 11, 791). […] For example, the Wnt inhibitor of the present disclosure, namely 2-(2′,3-dimethyl-[2,4′-bipyridin]-5-yl)-N-(5-(pyrazin-2-yl)pyridin-2-yl)acetamide was tested and the levels of pLRP6 and AXIN2qPCR were analyzed in biopsies of skin and tumors.

tumor = assay: other single-agent studies: cytotoxic gene signature and tumor efficacy; type: in vivo; details: alone as a single agent
Description: as §1

[2] = animal toxicity studies in rat
Description: Recently, the secreted glycoproteins R-spondins 1-4 (RSPO1-4) have emerged as important activators of canonical Wnt signaling. RSPOs bind to leucine-rich repeat-containing G-protein-coupled receptors (LGR4-6) and the transmembrane E3 ubiquitin ligases RING finger 43/zinc and RING finger 3 (RNF43/ZNRF3), forming a ternary complex (Chen et al. Genes Dev; 2013, 27, 1345). RNF43/ZNRF3 antagonize Wnt signaling by promoting the turnover of Fz and LRP6 (Hao et al. Nature 2012, 485 (7397), 195-200; Koo et al. Nature, 2012, 488 (7413), 665). Binding of RSPO induces the endocytosis of RNF43/ZNRF3, thereby increasing levels of membrane-bound Fz and LRP6 and enhancing Wnt ligand-mediated signaling. In order to activate signaling within target cells, Wnt proteins must be properly secreted and transported across the extracellular space. Porcupine is a membrane-bound-O-acyltransferase (MBOAT) that adds palmitoyl groups to Wnt proteins (Takada et al. Dev. Cell 2006, 11, 791). Mutations in components of the canonical Wnt pathway such as APC and β-catenin play important roles in the pathogenesis of some malignancies and those genetic lesions affect upstream Wnt pathway regulation. The inhibition of the Wnt pathway signaling was recently associated with several drawbacks such as side effects and dose limiting toxicities. Such drawbacks were limiting the anti-tumor efficacy of Wnt inhibitors. Separately, activation of the Wnt pathway was linked to resistance to immunotherapy and offers a mechanism by which tumors can evade immune detection and decrease clinical benefit to check-point inhibitors (Spranger et al. Nature 2015, 523, 231). For example, the Wnt inhibitor of the present disclosure, namely 2-(2′,3-dimethyl-[2,4′-bipyridin]-5-yl)-N-(5-(pyrazin-2-yl)pyridin-2-yl)acetamide was tested and the levels of pLRP6 and AXIN2qPCR were analyzed in biopsies of skin and tumors.

[3] = test system: tumor-immune microenvironment / WNT pathway (AXIN2); assay: NanoString gene expression of paired tumor biopsies (screening vs on treatment), immune gene signatures fitted against AXIN2 change; type: in vivo, human; details: for relationship between AXIN2 inhibition and increased expression of the dendritic cell signature (CD103+) / relationship between AXIN2 inhibition and increased expression of the chemokine signature (CD8+ T-cell recruitment): log 2 fold-change screening to on-treatment, 9 paired samples; for relationship between AXIN2 inhibition and increased expression of the dendritic cell signature (CD103+): 15 days of exposure; for relationship between AXIN2 inhibition and increased expression of the chemokine signature (CD8+ T-cell recruitment): about 15 days of exposure
Description: NanoString measures gene expression for a selected panel of up to about 1000 genes. This is executed using uniquely barcoded probes that hybridize directly to target RNAs (ribonucleic acids). The RNA-probe hybrids are then run out on a gel to linearize the barcodes. These barcodes are then counted and then normalized using an internally developed pipeline. […] Tumors were fixed in formalin and embedded in paraffin (FFPE) or directly placed in RNA Later. These samples were transferred to Genoptix where RNA was isolated for real time qPCR analyses of the pharmacodynamics (PD) marker AXIN2. Remnant RNA was transferred to the assay research laboratory (ARL) where gene expression was profiled using (2016) NanoString pan-cancer immune profiling panel as well as a custom design panel of immune-related genes. Gene expression was normalized using methods recommended by NanoString, with the exception that samples were normalized within specific indications (e.g. melanoma or pancreatic cancer samples were normalized separately) and housekeeping genes were selected using the geNorm stability metric [PMID: 12184808]. Certain genes overlapped between both panels, which we used to assess variability and other quality control parameters. […] The count data described herein was normalized according to the methods recommended by NanoString with one exception, namely that the samples were normalized within the specific indications as described herein and approximately 40 housekeeping genes (defined on the NanoString website for their commercially available cancer immune panel, 2016) were used for biological normalization across samples. Gene signatures were used before to probe the data for phenotypic changes in the tumor-immune microenvironment. It has been previously shown that in genetically engineered mice with activated WNT signaling the dendritic cells and T-cells in the tumor microenvironment are inhibited; however, it has not been shown that this effect is reversible. Therefore, our objective was to use gene expression analyses in samples from the patients treated with the Wnt inhibitor to determine the extent to which the inhibitory effects of WNT signaling in the tumor on the proximal immune cells can be reversed by pharmacological inhibition of the WNT pathway. To understand whether the Compound of Formula (I) has effects on the tumor immune microenvironment, we looked at the relationships between immune gene expression and the PD marker AXIN2. By using this marker, we can understand the extent to which the WNT pathway has been inhibited in a given tumor. Instead of focusing on individual genes, we used the geometric average expression of sets of genes (gene signatures) that describe a particular pathway or cellular function. One gene signature is a chemokine signature that is associated with recruitment of CD8+ T-cells [PMID: 19293190] and other signature is associated with activated CD103+ dendritic cells [PMID: 25970248]. Not every subject presented with a strong inhibition of the WNT pathway as evidenced by the fold-changes observed in AXIN2 expression. […] These dendritic cells, when stimulated, function to recruit T-cells to the tumor. Importantly, this observation was made after 15 days of exposure to the Wnt inhibitor, which supported that intermittent dosing of the Compound of Formula (I) could be combined with a checkpoint inhibitor to stimulate an anti-tumor immune response in the context of tumors that previously had lacked immune infiltrate. […] The changes in AXIN2 expression were fitted by linear model to immune signature changes. […] Both are in log 2 scale. A positive value indicates an increase in the average expression of the genes in a given signature or in AXIN2. […] Second, a relationship between interferon gamma (or type II interferon) and AXIN2 inhibition was observed. Interferon gamma is typically expressed by CD8+ T-cells. […]

[4] = clinical study of the Wnt inhibitor: bone events; type: in vivo, human; details: patients
Description: The Wnt signaling pathway is required for development and survival of osteoblasts (involved in bone formation) and negatively regulates osteoclasts (involved in bone resorption). […] In addition, the short intermittent dosing of Wnt inhibitor was sufficient to result in upregulation of the activated dendritic cells signature. This is relevant because this subtype of dendritic cell is important for recruiting and activating T cells for an anti-tumoral response. Inhibition of the Wnt signaling in cancer treatment improves the response rate to PD-1 inhibition through release of inhibition of dendritic cells and T-cell activation. Overall, the combination of the Wnt inhibitor (i) and an anti-PD-1 antibody molecule, wherein Wnt inhibitor is administered only at the beginning of the treatment cycle for, e.g. 8 or 15 days, can show mutually coordinated effect of both compounds and offer better efficacy and […] safety profile compared to, for example, use of the Wnt inhibitor (i) alone.

[5] = dog, in vivo
[6] = animal toxicity studies in dog; details: dogs

PDR001: anti-PD-1 antibody molecule with VH and VL CDR sequences of BAP049-Clone-E, described in PCT/CN2016/099494
RP2D [1]: dose of 400 mg Q4W is the RP2D determined within the CPDR001X2101

Cc1cc(-c2ncc(CC(=O)Nc3ccc(-c4cnccn4)cn3)cc2C)ccn1 [Compound of Formula (I), 2-(2′,3-dimethyl-[2,4′-bipyridin]-5-yl)-N-(5-(pyrazin-2-yl)pyridin-2-yl)acetamide]
level of AXIN2 (qPCR) (Wnt pathway): inhibited
level of pLRP6 (Wnt pathway): inhibited
cytotoxic gene signature (tumor): increased
tumor efficacy (tumor): lack of tumor efficacy
trabeculae ([2]; rat studies): decrease in trabeculae
toxicities (organs affected) ([2]; rat, in vivo): toxicities in gastrointestinal (GI) tract, bones and teeth
effects on bone marrow ([2]; rats): secondary effects
surrounding dendritic cell population on pharmacological inhibition of the WNT pathway ([3]; after 15 days of exposure): concomitant stimulation
relationship between AXIN2 inhibition and increased expression of the dendritic cell signature (CD103+) [3]: fairly linear relationship
relationship between AXIN2 inhibition and increased expression of the dendritic cell signature (CD103+) ([3]; listed as Wnt inhibitor (i)): fairly linear relationships
relationship between AXIN2 inhibition and increased expression of the chemokine signature (CD8+ T-cell recruitment) [3]: fairly linear relationship
relationship between AXIN2 inhibition and increased expression of the chemokine signature (CD8+ T-cell recruitment) ([3]; listed as WNT inhibitor (i)): linear relationship
relationship between AXIN2 inhibition and increased expression of the chemokine signature (CD8+ T-cell recruitment) ([3]; listed as Wnt inhibitor (i)): fairly linear relationships
relationship between AXIN2 inhibition and T-regulation (T-reg) signature ([3]; log 2 scale, FIG. 4): modest inverse relationship
relationship between AXIN2 inhibition and mast cell signature ([3]; log 2 scale, FIG. 4): modest inverse relationship
relationship between type I interferon signature and AXIN2 inhibition ([3]; log 2 scale, FIG. 4): weak relationship
immune cell infiltrates in the tumor-immune microenvironment ([3]; patient tumor biopsies): increasing immune cell infiltrates
inhibition of CD103+ dendritic cells ([3]; patient tumor biopsies): alleviating the inhibition of CD103+ dendritic cells
immune signatures in tumors ([3]; patients, Wnt inhibitor alone): changes in immune signatures in tumors
activated dendritic cells signature ([3]; short intermittent dosing): upregulation
bone fractures [4]: some patients experienced bone fractures
toxicities (organs affected) [5]: toxicities in gastrointestinal (GI) tract, bones and teeth
effects on kidneys [6]: secondary effects
